Activity calls are given as the source filed them. The calls are words filed in the database; no cut-off is given here.
What was measured:
A549 [1] = assay: Cytotoxicity against human A549 cells assessed as inhibition of cell growth incubated for 24 hrs by MTT assay; type: functional, cell-based; conditions: A549, 24 h
[2] = Cytotoxicity against human CCD 19Lu cells assessed as inhibition of cell growth incubated for 24 hrs by MTT assay; type: toxicity, cell-based
[3] = Selectivity index, ratio of IC50 for cytotoxicity against human CCD 19Lu cells to IC50 for cytotoxicity against human A549 cells; type: toxicity, cell-based; conditions: CCD 19Lu cells versus A549 cells, read-out: Ratio IC50
PANC-1 [4] = assay: Cytotoxicity against human PANC-1 cells assessed as inhibition of cell growth incubated for 24 hrs by MTT assay; type: functional, cell-based; conditions: PANC-1, 24 h
[5] = Cytotoxicity against human hTERT-HPNE cells assessed as inhibition of cell growth incubated for 24 hrs by MTT assay; type: toxicity, cell-based
[6] = Selectivity index, ratio of IC50 for cytotoxicity against human hTERT-HPNE cells to IC50 for cytotoxicity against human PANC-1 cells; type: toxicity, cell-based; conditions: hTERT-HPNE cells versus PANC-1 cells, read-out: Ratio IC50
[7] = biological target: Procathepsin L (Homo sapiens) (UniProt P07711); assay: Inhibition of cathepsin L (unknown origin) at 100 uM relative to control
[8] = biological target: Cathepsin D (Homo sapiens) (UniProt P07339); assay: Inhibition of cathepsin D (unknown origin) at 100 uM
[9] = biological target: Procathepsin L (Homo sapiens) (UniProt P07711); assay: Inhibition of cathepsin L (unknown origin) at 100 uM
[10] = biological target: Cathepsin D (Homo sapiens) (UniProt P07339); assay: Inhibition of cathepsin D (unknown origin) at 100 uM relative to control
A549 [11] = assay: Inhibition of DNA synthesis in human A549 cells at IC50/4 incubated for 24 hrs by BrdU incorporation assay relative to control; type: functional
A549 [12] = assay: Inhibition of DNA synthesis in human A549 cells at IC50/2 incubated for 24 hrs by BrdU incorporation assay relative to control; type: functional
A549 [13] = assay: Inhibition of DNA synthesis in human A549 cells at IC50 incubated for 24 hrs by BrdU incorporation assay relative to control; type: functional
PANC-1 [14] = assay: Inhibition of DNA synthesis in human PANC-1 cells at 10.04 uM incubated for 24 hrs by BrdU incorporation assay relative to control; type: functional
A549 [15] = assay: Induction of apoptosis in human A549 cells assessed as early apoptotic cells at IC50 incubated for 24 hrs by annexin V-FITC/PI staining based flow cytometry analysis (reference value: 5.6%); type: functional
A549 [16] = assay: Induction of apoptosis in human A549 cells assessed as late apoptotic cells at IC50 incubated for 24 hrs by annexin V-FITC/PI staining based flow cytometry analysis (reference value: 6.5 %); type: functional
A549 [17] = assay: Induction of apoptosis in human A549 cells assessed as total cell viability at IC50 incubated for 24 hrs by annexin V-FITC/PI staining based flow cytometry analysis (reference value: 85.6 %); type: functional
PANC-1 [18] = assay: Induction of apoptosis in human PANC-1 cells assessed as early apoptotic cells at IC50 incubated for 24 hrs by annexin V-FITC/PI staining based flow cytometry analysis (reference value: 0%); type: functional
PANC-1 [19] = assay: Induction of apoptosis in human PANC-1 cells assessed as late apoptotic cells at IC50 incubated for 24 hrs by annexin V-FITC/PI staining based flow cytometry analysis (reference value: 0.2%); type: functional
PANC-1 [20] = assay: Induction of apoptosis in human PANC-1 cells assessed as total cell viability at IC50 incubated for 24 hrs by annexin V-FITC/PI staining based flow cytometry analysis (reference value: 84.4%); type: functional
A549 [21] = assay: Induction of apoptosis in human A549 cells assessed as activation of caspase-3 by measuring caspase-3 positive cells at IC50 incubated for 24 hrs by flow cytometry analysis (reference value: 8.4%); type: functional
A549 [22] = assay: Induction of apoptosis in human A549 cells assessed as activation of caspase-3 by measuring caspase-3 negative cells at IC50 incubated for 24 hrs by flow cytometry analysis (reference value: 91.1%); type: functional
PANC-1 [23] = assay: Induction of apoptosis in human PANC-1 cells assessed as activation of caspase-3 by measuring caspase-3 positive cells at IC50 incubated for 24 hrs by flow cytometry analysis (reference value: 1.8%); type: functional
PANC-1 [24] = assay: Induction of apoptosis in human PANC-1 cells assessed as activation of caspase-3 by measuring caspase-3 negative cells at IC50 incubated for 24 hrs by flow cytometry analysis (reference value: 98.5 %); type: functional
A549 [25] = assay: Induction of mitochondrial membrane potential loss in human A549 cells assessed as polarized cells at IC50 incubated for 24 hrs by JC-1 staining based flow cytometry assay (reference value: 90.6%); type: functional
A549 [26] = assay: Induction of mitochondrial membrane potential loss in human A549 cells assessed as depolarized cells at IC50 incubated for 24 hrs by JC-1 staining based flow cytometry assay (reference value: 6.9%); type: functional
PANC-1 [27] = assay: Induction of mitochondrial membrane potential loss in human PANC-1 cells assessed as polarized cells at IC50 incubated for 24 hrs by JC-1 staining based flow cytometry assay (reference value: 92%); type: functional
PANC-1 [28] = assay: Induction of mitochondrial membrane potential loss in human PANC-1 cells assessed as depolarized cells at IC50 incubated for 24 hrs by JC-1 staining based flow cytometry assay (reference value: 5%); type: functional
A549 [29] = assay: Induction of morphological changes in human A549 cells assessed as cell shrinkage at 15.33 uM incubated for 24 hrs by acridine orange/ethidium bromide staining based fluorescence microscopic analysis; type: functional
A549 [30] = assay: Induction of morphological changes in human A549 cells assessed as chromatin condensation at 15.33 uM incubated for 24 hrs by acridine orange/ethidium bromide staining based fluorescence microscopic analysis; type: functional, cell-based
A549 [31] = assay: Induction of morphological changes in human A549 cells assessed as formation of apoptotic bodies at 15.33 uM incubated for 24 hrs by acridine orange/ethidium bromide staining based fluorescence microscopic analysis; type: functional, cell-based
PANC-1 [32] = assay: Induction of morphological changes in human PANC-1 cells assessed as cell shrinkage at 10.04 uM incubated for 24 hrs by acridine orange/ethidium bromide staining based fluorescence microscopic analysis; type: functional
PANC-1 [33] = assay: Induction of morphological changes in human PANC-1 cells assessed as chromatin condensation at 10.04 uM incubated for 24 hrs by acridine orange/ethidium bromide staining based fluorescence microscopic analysis; type: functional, cell-based
PANC-1 [34] = assay: Induction of morphological changes in human PANC-1 cells assessed as formation of apoptotic bodies at 10.04 uM incubated for 24 hrs by acridine orange/ethidium bromide staining based fluorescence microscopic analysis; type: functional, cell-based
PANC-1 [35] = assay: Potency index, ratio of cisplatin IC50 for test compound IC50 for cytotoxicity against human PANC-1 cells assessed as inhibition of cell growth incubated for 24 hrs by MTT assay; type: functional
PANC-1 [36] = assay: Inhibition of DNA synthesis in human PANC-1 cells at IC50/4 to IC50 concentration incubated for 24 hrs by BrdU incorporation assay; type: functional, cell-based
PANC-1 [37] = assay: Induction of morphological changes in human PANC-1 cells assessed as cell shrinkage at 13.58 uM incubated for 24 hrs by acridine orange/ethidium bromide staining based fluorescence microscopic analysis; type: functional
PANC-1 [38] = assay: Induction of morphological changes in human PANC-1 cells assessed as chromatin condensation at 13.58 uM incubated for 24 hrs by acridine orange/ethidium bromide staining based fluorescence microscopic analysis; type: functional, cell-based
PANC-1 [39] = assay: Induction of morphological changes in human PANC-1 cells assessed as formation of apoptotic bodies at 13.58 uM incubated for 24 hrs by acridine orange/ethidium bromide staining based fluorescence microscopic analysis; type: functional, cell-based

Chain of Cathepsin D (Homo sapiens) (P07339 65-162 limits assumed): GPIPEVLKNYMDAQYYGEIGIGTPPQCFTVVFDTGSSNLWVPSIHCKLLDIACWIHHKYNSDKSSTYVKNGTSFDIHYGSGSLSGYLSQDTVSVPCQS
Chain of Cathepsin D (Homo sapiens) (P07339 169-412 limits assumed): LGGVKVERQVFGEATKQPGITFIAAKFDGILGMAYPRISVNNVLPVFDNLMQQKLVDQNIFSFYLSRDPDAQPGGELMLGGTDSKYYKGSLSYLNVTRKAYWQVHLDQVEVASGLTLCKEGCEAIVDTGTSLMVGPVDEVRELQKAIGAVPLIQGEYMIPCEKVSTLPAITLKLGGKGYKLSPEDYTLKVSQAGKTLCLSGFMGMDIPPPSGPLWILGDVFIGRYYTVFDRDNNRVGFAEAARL
Chain of Procathepsin L (Homo sapiens) (P07711 114-333 limits assumed): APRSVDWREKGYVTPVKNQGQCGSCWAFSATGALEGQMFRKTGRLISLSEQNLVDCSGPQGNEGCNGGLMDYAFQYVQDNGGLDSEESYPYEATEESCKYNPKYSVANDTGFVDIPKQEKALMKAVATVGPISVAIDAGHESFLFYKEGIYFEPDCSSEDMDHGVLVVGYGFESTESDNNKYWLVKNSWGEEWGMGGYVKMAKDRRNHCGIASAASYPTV

inhibition [8]	inhibition [9]	SMILES	IC50 (A549 [1])	IC50 at 24 h [2]	selectivity ratio [3]	IC50 (PANC-1 [4])	IC50 at 24 h [5]	selectivity ratio [6]	Activity (PANC-1 [18])	Activity (PANC-1 [19])	Activity (PANC-1 [20])	Activity (PANC-1 [23])	Activity (PANC-1 [24])	Activity (PANC-1 [27])	Activity (PANC-1 [28])	further results
inactive	–	O=C1/C(=C/c2ccc(-n3ccnc3)cc2)Cc2cc3c(cc21)OCO3	132 µM	> 1510 µM	> 11.4	71.1 µM	153 µM	2.16	–	–	–	–	–	–	–	inhibition [7]: 24.8%
–	inactive	O=C1/C(=C/c2ccc(N3CCCCC3)cc2)Cc2cc3c(cc21)OCO3	16.3 µM	< 11.2 µM	–	360 µM	1180 µM	3.28	–	–	–	–	–	–	–	inhibition [10]: 39.1%
inactive	inactive	O=C1/C(=C/c2ccc(OCCN3CCOCC3)cc2)Cc2cc3c(cc21)OCO3	15.3 µM	160 µM	10.4	10 µM	> 1270 µM	> 127	0.1%	0.5%	9.5%	7.3%	93.6%	37.8%	61.2%	inhibition (INH) (A549 [11]): 4.83%; inhibition (INH) (A549 [12]): 9.78%; inhibition (INH) (A549 [13]): 19.99%; inhibition at 10.04 µM (PANC-1 [14]): 18.4%; Activity (A549 [15]): 10.4%; Activity (A549 [16]): 5.6%; Activity (A549 [17]): 82.4%; Activity (A549 [21]): 6.9%; Activity (A549 [22]): 93.2%; Activity (A549 [25]): 62.8%; Activity (A549 [26]): 35%; Activity (A549 [29]): Active; Activity (A549 [30]): Active; Activity (A549 [31]): Active; Activity (PANC-1 [32]): Active; Activity (PANC-1 [33]): Active; Activity (PANC-1 [34]): Active
inactive	inactive	O=C1/C(=C/c2ccc(-n3cncn3)cc2)Cc2cc3c(cc21)OCO3	64.9 µM	> 1510 µM	> 23.3	13.6 µM	> 1510 µM	> 111	0.1%	0.4%	94%	9.1%	93.5%	29.5%	58.6%	Ratio IC50 (PANC-1 [35]): 3; inhibition (PANC-1 [36]): inactive; Activity (PANC-1 [37]): Active; Activity (PANC-1 [38]): Active; Activity (PANC-1 [39]): Active
